#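 96-well plates; 48 h exposure; 5 concentrations. Endpoints by linear interpolation between flanking doses. Not reached: highest tested concentration assigned. GI50 marks 50% less growth. At the TGI there is no net growth.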
# Columns and labels:
# Test in all cases: growth of human tumour cells (NCI), 48 h
# [1] = test system: SW-620 colon
# [2] = test system: MALME-3M melanoma
# [3] = test system: CAKI-1 renal
# [4] = test system: LOX IMVI melanoma
# [5] = test system: SK-MEL-28 melanoma
# [6] = test system: U251 CNS
# [7] = test system: UO-31 renal
# [8] = test system: KM12 colon
# [9] = test system: DU-145 prostate
# [10] = test system: SNB-19 CNS
# [11] = test system: NCI-H23 lung
# [12] = test system: MOLT-4 leukemia
# [13] = test system: NCI-H460 lung
# [14] = test system: SF-539 CNS
# [15] = test system: OVCAR-3 ovarian
# [16] = test system: OVCAR-5 ovarian
# [17] = test system: M14 melanoma
# [18] = test system: HCC-2998 colon
# [19] = test system: 786-0 renal
# [20] = test system: MDA-MB-231 breast
# [21] = test system: HCT-15 colon
# [22] = test system: RXF 393 renal
# [23] = test system: SK-MEL-5 melanoma
# [24] = test system: HOP-62 NSCLC
# [25] = test system: RPMI-8226 leukemia
# [26] = test system: K-562 leukemia
# [27] = test system: UACC-257 melanoma
# [28] = test system: OVCAR-8 ovarian
# [29] = test system: SK-OV-3 ovarian
# [30] = test system: HS 578T breast
# [31] = test system: HL-60(TB) leukemia
# [32] = test system: SN12C renal
# [33] = test system: TK-10 renal
# [34] = test system: HCT-116 colon
# [35] = test system: BT-549 breast
# [36] = test system: NCI-H522 lung
# [37] = test system: MCF7 breast
# [38] = test system: SNB-75 CNS
# [39] = test system: A549 NSCLC
# [40] = test system: HOP-92 NSCLC
# [41] = test system: OVCAR-4 ovarian
# [42] = test system: ACHN renal
# [43] = test system: EKVX NSCLC
# [44] = test system: NCI/ADR-RES ovarian
# [45] = test system: CCRF-CEM leukemia
# [46] = test system: IGROV1 ovarian
# [47] = test system: SF-268 CNS
# [48] = test system: HT29 colon
# [49] = test system: COLO 205 colon
# [50] = test system: NCI-H226 lung
# [51] = test system: SK-MEL-2 melanoma
# [52] = test system: MDA-MB-435
# [53] = test system: SF-295 CNS
# [54] = test system: A498 renal
# [55] = test system: PC-3 prostate
# [56] = test system: UACC-62 melanoma
# [57] = test system: T-47D breast
# [58] = test system: SR leukemia
smiles,measurement,setting,value
COc1cc2c3c(n(CCCN4CCOCC4)c(=O)c2cc1OC)-c1cc2c(cc1C3=O)OCO2,GI50,[1],8.94 µM
same,TGI,[1],> 100 µM
same,GI50,[2],6.6 µM
same,TGI,[2],84.5 µM
same,GI50,[3],0.52 µM
same,TGI,[3],14.6 µM
same,TGI,[4],> 35 µM
same,GI50,[5],> 76.9 µM
same,TGI,[5],> 100 µM
same,GI50,[6],3.56 µM
same,TGI,[6],> 91.6 µM
same,GI50,[7],5.87 µM
same,TGI,[7],> 100 µM
same,GI50,[8],32.4 µM
same,TGI,[8],> 100 µM
same,GI50,[9],0.612 µM
same,TGI,[9],> 21.6 µM
same,GI50,[10],> 38.6 µM
same,TGI,[10],> 100 µM
same,GI50,[11],1.97 µM
same,TGI,[11],27.2 µM
same,GI50,[12],0.0841 µM
same,TGI,[12],1.81 µM
same,GI50,[13],0.277 µM
same,TGI,[13],> 100 µM
same,GI50,[14],0.165 µM
same,TGI,[14],2.37 µM
same,GI50,[15],15.6 µM
same,TGI,[15],> 50.7 µM
same,GI50,[16],67.5 µM
same,TGI,[16],> 100 µM
same,GI50,[17],0.9 µM
same,TGI,[17],22.2 µM
same,GI50,[18],10.7 µM
same,TGI,[18],65.4 µM
same,GI50,[19],0.689 µM
same,TGI,[19],20.3 µM
same,GI50,[20],3.92 µM
same,GI50,[21],17.4 µM
same,TGI,[21],> 100 µM
same,TGI,[22],> 66.6 µM
same,GI50,[23],1.34 µM
same,TGI,[23],12.2 µM
same,GI50,[24],1.86 µM
same,TGI,[24],55.7 µM
same,GI50,[25],0.608 µM
same,TGI,[25],16.8 µM
same,GI50,[26],4.54 µM
same,TGI,[26],> 100 µM
same,GI50,[27],> 51.5 µM
same,TGI,[27],> 100 µM
same,GI50,[28],3.62 µM
same,TGI,[28],> 100 µM
same,GI50,[29],> 77.6 µM
same,TGI,[29],> 100 µM
same,GI50,[30],71.3 µM
same,TGI,[30],> 100 µM
same,GI50,[31],3.57 µM
same,TGI,[31],> 47 µM
same,GI50,[32],0.821 µM
same,TGI,[32],> 100 µM
same,GI50,[33],34.6 µM
same,TGI,[33],> 94.3 µM
same,GI50,[34],1.8 µM
same,TGI,[34],17.4 µM
same,GI50,[35],12.6 µM
same,TGI,[35],> 100 µM
same,GI50,[36],3.97 µM
same,TGI,[36],> 100 µM
same,GI50,[37],0.368 µM
same,TGI,[37],> 36.3 µM
same,GI50,[38],8.29 µM
same,TGI,[38],> 100 µM
same,GI50,[39],3.43 µM
same,TGI,[39],> 100 µM
same,GI50,[40],3.21 µM
same,TGI,[40],> 91.5 µM
same,GI50,[41],51 µM
same,TGI,[41],> 100 µM
same,GI50,[42],0.5 µM
same,TGI,[42],> 100 µM
same,GI50,[43],50.9 µM
same,TGI,[43],> 100 µM
same,GI50,[44],1.57 µM
same,TGI,[44],27.1 µM
same,GI50,[45],0.0934 µM
same,TGI,[45],3.34 µM
same,GI50,[46],> 61 µM
same,TGI,[46],> 100 µM
same,GI50,[47],0.954 µM
same,TGI,[47],> 100 µM
same,GI50,[48],5.62 µM
same,TGI,[48],> 67 µM
same,GI50,[49],40.4 µM
same,TGI,[49],> 100 µM
same,GI50,[50],4.6 µM
same,TGI,[50],> 81.8 µM
same,GI50,[51],> 100 µM
same,TGI,[51],> 100 µM
same,GI50,[52],28 µM
same,TGI,[52],> 84.4 µM
same,GI50,[53],0.137 µM
same,TGI,[53],> 38.8 µM
same,GI50,[54],7.53 µM
same,TGI,[54],54 µM
same,GI50,[55],18.7 µM
same,TGI,[55],> 100 µM
same,GI50,[56],0.193 µM
same,TGI,[56],2.29 µM
same,GI50,[57],> 50.8 µM
same,TGI,[57],> 100 µM
CC(=O)O[C@@H]1CC(=O)O[C@@H]2C[C@@H](CC/C(Cl)=C/C/C=C\1C)O[C@@H]2CO,GI50,[1],> 25 µM
same,TGI,[1],> 25 µM
same,GI50,[3],> 25 µM
same,TGI,[3],> 25 µM
same,GI50,[4],> 25 µM
same,TGI,[4],> 25 µM
same,GI50,[5],> 25 µM
same,TGI,[5],> 25 µM
same,GI50,[6],> 25 µM
same,TGI,[6],> 25 µM
same,GI50,[7],> 25 µM
same,TGI,[7],> 25 µM
same,TGI,[8],> 6.4 µM
same,GI50,[9],> 22.1 µM
same,TGI,[9],> 25 µM
same,GI50,[10],> 25 µM
same,TGI,[10],> 25 µM
same,GI50,[11],> 25 µM
same,TGI,[11],> 25 µM
same,GI50,[12],> 25 µM
same,TGI,[12],> 25 µM
same,GI50,[13],> 25 µM
same,TGI,[13],> 25 µM
same,GI50,[14],> 25 µM
same,TGI,[14],> 25 µM
same,TGI,[15],> 10.6 µM
same,GI50,[16],> 25 µM
same,TGI,[16],> 25 µM
same,GI50,[17],> 25 µM
same,TGI,[17],> 25 µM
same,GI50,[18],> 25 µM
same,TGI,[18],> 25 µM
same,GI50,[19],> 25 µM
same,TGI,[19],> 25 µM
same,GI50,[20],> 25 µM
same,TGI,[20],> 25 µM
same,GI50,[21],> 25 µM
same,TGI,[21],> 25 µM
same,GI50,[22],> 25 µM
same,TGI,[22],> 25 µM
same,GI50,[23],> 25 µM
same,TGI,[23],> 25 µM
same,GI50,[24],> 25 µM
same,TGI,[24],> 25 µM
same,GI50,[25],> 25 µM
same,TGI,[25],> 25 µM
same,GI50,[26],> 25 µM
same,TGI,[26],> 25 µM
same,GI50,[27],> 25 µM
same,TGI,[27],> 25 µM
same,GI50,[28],> 25 µM
same,TGI,[28],> 25 µM
same,GI50,[29],> 25 µM
same,TGI,[29],> 25 µM
same,GI50,[30],> 25 µM
same,TGI,[30],> 25 µM
same,GI50,[31],> 25 µM
same,TGI,[31],> 25 µM
same,GI50,[32],> 25 µM
same,TGI,[32],> 25 µM
same,GI50,[33],> 25 µM
same,TGI,[33],> 25 µM
same,GI50,[34],> 25 µM
same,TGI,[34],> 25 µM
same,GI50,[35],24.5 µM
same,TGI,[35],> 25 µM
same,GI50,[36],> 25 µM
same,TGI,[36],> 25 µM
same,GI50,[37],> 25 µM
same,TGI,[37],> 25 µM
same,GI50,[38],> 25 µM
same,TGI,[38],> 25 µM
same,GI50,[39],> 25 µM
same,TGI,[39],> 25 µM
same,GI50,[40],> 25 µM
same,TGI,[40],> 25 µM
same,GI50,[42],> 25 µM
same,TGI,[42],> 25 µM
same,GI50,[43],> 15 µM
same,TGI,[43],> 25 µM
same,GI50,[44],> 25 µM
same,TGI,[44],> 25 µM
same,GI50,[46],> 25 µM
same,TGI,[46],> 25 µM
same,GI50,[47],> 25 µM
same,TGI,[47],> 25 µM
same,GI50,[58],> 25 µM
same,TGI,[58],> 25 µM
same,GI50,[48],> 25 µM
same,TGI,[48],> 25 µM
same,GI50,[49],> 25 µM
same,TGI,[49],> 25 µM
same,GI50,[50],> 25 µM
same,TGI,[50],> 25 µM
same,GI50,[51],> 25 µM
same,TGI,[51],> 25 µM
same,TGI,[53],> 25 µM
same,GI50,[54],20.1 µM
same,TGI,[54],> 25 µM
same,GI50,[55],> 25 µM
same,TGI,[55],> 25 µM
same,GI50,[56],> 25 µM
same,TGI,[56],> 25 µM
